According to article PMC6079014, “Calcium is an essential cofactor for metal efflux by the ferroportin transporter family” (Nature Communications, 2018):

Legend:
[1] = target: T1, human Fpn (Homo sapiens, UniProt Q9NP59); assay: 45Ca radiotracer uptake assay in Xenopus oocytes expressing Fpn; assay type: cell-based; conditions: 100 μM 45Ca2+, 30 min; vehicle or 50 nl of 50 µM Fe injected
T1 construct: expressed in transfected cells; host or cells: Xenopus laevis oocytes injected with Fpn RNA
T1 sequence (Q9NP59 1-571): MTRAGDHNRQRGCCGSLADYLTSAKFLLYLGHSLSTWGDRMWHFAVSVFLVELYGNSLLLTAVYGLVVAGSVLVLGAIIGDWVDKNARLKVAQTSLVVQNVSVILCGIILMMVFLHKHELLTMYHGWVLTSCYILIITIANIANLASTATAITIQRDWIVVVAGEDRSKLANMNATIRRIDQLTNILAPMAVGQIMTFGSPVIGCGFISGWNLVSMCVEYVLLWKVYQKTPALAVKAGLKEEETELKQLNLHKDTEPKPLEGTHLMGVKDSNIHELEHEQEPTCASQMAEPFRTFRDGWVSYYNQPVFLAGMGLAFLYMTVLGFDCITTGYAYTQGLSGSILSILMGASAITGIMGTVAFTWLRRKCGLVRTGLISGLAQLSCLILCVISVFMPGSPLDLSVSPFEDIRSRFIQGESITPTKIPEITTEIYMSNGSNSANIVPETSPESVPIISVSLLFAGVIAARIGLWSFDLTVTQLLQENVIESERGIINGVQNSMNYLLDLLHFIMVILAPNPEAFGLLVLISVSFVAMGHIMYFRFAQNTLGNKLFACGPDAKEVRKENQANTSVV
Method: We performed laparotomy and ovariectomy on adult female Xenopus laevis frogs (Nasco, Fort Atkinson, WI) under 2-aminoethylbenzoate methanesulfonate anesthesia (0.2%, by immersion, to effect) following a protocol approved by the University of Cincinnati Institutional Animal Care and Use Committee. Ovarian tissue was isolated and treated for 3 h with […] collagenase A (Roche Diagnostics Corp., Indianapolis, IN) in calcium-free-modified Barths’ medium (MBM) of composition 88 mM NaCl, 1 mM KCl, 2.4 mM NaHCO3, 1.57 mM MgSO4, 0.66 mM NaNO3, 10 mM 4-(2-hydroxyethyl)-1-piperazineethanesulfonic acid (HEPES), buffered to pH 7.5 by using 2-amino-2-hydroxymethyl-propane-1,3-diol (Tris base). We isolated defolliculate stage V–VI oocytes stored at 17 °C in MBM of composition 88 mM NaCl, 1 mM KCl, 2.4 mM NaHCO3, 0.82 MgSO4, 0.75 mM CaCl2, 0.66 mM NaNO3, 10 mM HEPES, buffered to pH 7.5 by using Tris base, with 50 mg l^−1 ciprofloxacin. We expressed in Xenopus oocytes the 1A transcript form of human Fpn fused at its C-terminus with the enhanced green fluorescent protein (GFP) as described. Oocytes were injected with ∼50 ng of Fpn RNA and incubated for 4–6 days before being used in functional assays. Control oocytes were noninjected.
We measured calcium uptake by using a radiotracer assay. […]

[2] = target: BbFpn Q84E (Bdellovibrio bacteriovorus, UniProt Q6MLJ0, Q84E); assay: Isothermal titration calorimetry, Q84E BbFpn; assay type: binding, Bdellovibrio bacteriovorous
[3] = target: T1, human Fpn; assay: Radiotracer metal efflux assay in Xenopus oocytes expressing human Fpn; assay type: cell-based; conditions: 2 mM extracellular Ca2+ vs 0 mM Ca2+ plus 1 mM EGTA; 50 nl of 50 µM 65Zn injected

Sequence of BbFpn Q84E (Q6MLJ0 whole entry Q84E): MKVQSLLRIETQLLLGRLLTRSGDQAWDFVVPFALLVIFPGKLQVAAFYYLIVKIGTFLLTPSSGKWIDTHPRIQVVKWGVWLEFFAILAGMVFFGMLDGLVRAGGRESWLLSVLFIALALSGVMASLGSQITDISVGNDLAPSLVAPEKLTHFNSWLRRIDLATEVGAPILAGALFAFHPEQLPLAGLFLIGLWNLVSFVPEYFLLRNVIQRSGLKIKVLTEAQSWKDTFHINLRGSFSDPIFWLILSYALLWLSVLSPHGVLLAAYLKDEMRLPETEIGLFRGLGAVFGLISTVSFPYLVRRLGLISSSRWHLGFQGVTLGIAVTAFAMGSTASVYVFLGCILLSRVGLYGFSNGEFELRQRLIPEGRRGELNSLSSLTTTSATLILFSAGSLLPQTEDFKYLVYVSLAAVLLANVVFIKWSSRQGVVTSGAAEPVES

[Ca+2] [Ca^2+, calcium]
Uptake of 45Ca2+ in oocytes expressing Fpn vs control [1]: neither Fpn expression nor intracellular iron injection stimulated
Binding to Q84E BbFpn by ITC (in words) [2]: no Ca^2+ or Sr^2+ binding
Effect of extracellular Ca2+ on Fpn-mediated 65Zn efflux [3]: activated
